Assay results published in PubChem BioAssay (NCI).
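Interpolation was linear, between the two tested concentrations surrounding the appropriate level; five concentrations were tested over 48 hours in 96-well plates. TGI is the concentration that stops growth completely.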

Experiments:
Assay in all cases: inhibition of tumour cell growth, NCI panel, 48 h
SW-620 colon = system: SW-620 colon
A549 NSCLC = system: A549 NSCLC
ACHN renal = system: ACHN renal
SNB-75 CNS = system: SNB-75 CNS
NCI-H460 lung = system: NCI-H460 lung
K-562 leukemia = system: K-562 leukemia
A498 renal = system: A498 renal
SK-MEL-28 melanoma = system: SK-MEL-28 melanoma
UO-31 renal = system: UO-31 renal
EKVX NSCLC = system: EKVX NSCLC
UACC-257 melanoma = system: UACC-257 melanoma
NCI-H522 lung = system: NCI-H522 lung
SK-OV-3 ovarian = system: SK-OV-3 ovarian
SR leukemia = system: SR leukemia
786-0 renal = system: 786-0 renal
SK-MEL-5 melanoma = system: SK-MEL-5 melanoma

## COC(=O)C(Cc1nc2ccc(Cl)cc2[nH]c1=O)C(=O)C(=O)Nc1cc(C)ccc1C (stereo unspecified)
SW-620 colon
  TGI: > 100 µM
A549 NSCLC
  TGI: > 100 µM
ACHN renal
  TGI: > 100 µM
SNB-75 CNS
  TGI: > 100 µM
NCI-H460 lung
  TGI: > 100 µM
K-562 leukemia
  TGI: > 100 µM
A498 renal
  TGI: > 100 µM
SK-MEL-28 melanoma
  TGI: > 100 µM
UO-31 renal
  TGI: > 100 µM
EKVX NSCLC
  TGI: > 100 µM
UACC-257 melanoma
  TGI: > 100 µM
NCI-H522 lung
  TGI: > 100 µM
SK-OV-3 ovarian
  TGI: > 100 µM
SR leukemia
  TGI: > 100 µM
786-0 renal
  TGI: > 100 µM
SK-MEL-5 melanoma
  TGI: > 100 µM

## CCc1cccc(C(C)C)c1NC(=O)/C(=N\NC(N)=O)C(C(=O)OC)c1cnc2ccccc2n1 (stereo unspecified)
SW-620 colon
  TGI: > 100 µM
A549 NSCLC
  TGI: 76.5 µM
ACHN renal
  TGI: > 100 µM
SNB-75 CNS
  TGI: > 100 µM
NCI-H460 lung
  TGI: 80.7 µM
K-562 leukemia
  TGI: > 100 µM
A498 renal
  TGI: > 100 µM
SK-MEL-28 melanoma
  TGI: > 100 µM
UO-31 renal
  TGI: > 100 µM
EKVX NSCLC
  TGI: > 100 µM
UACC-257 melanoma
  TGI: 94.4 µM
NCI-H522 lung
  TGI: 71.9 µM
SK-OV-3 ovarian
  TGI: > 100 µM
SR leukemia
  TGI: > 100 µM
786-0 renal
  TGI: > 100 µM
SK-MEL-5 melanoma
  TGI: 35.1 µM

## N#CC(O)CCOCc1ccccc1 (stereo unspecified)
SW-620 colon
  TGI: > 100 µM
A549 NSCLC
  TGI: > 100 µM
ACHN renal
  TGI: > 100 µM
NCI-H460 lung
  TGI: > 100 µM
K-562 leukemia
  TGI: > 100 µM
A498 renal
  TGI: > 100 µM
SK-MEL-28 melanoma
  TGI: > 100 µM
UO-31 renal
  TGI: > 100 µM
EKVX NSCLC
  TGI: > 100 µM
UACC-257 melanoma
  TGI: > 100 µM
NCI-H522 lung
  TGI: 51.4 µM
SK-OV-3 ovarian
  TGI: > 100 µM
SR leukemia
  TGI: > 100 µM
786-0 renal
  TGI: > 100 µM
SK-MEL-5 melanoma
  TGI: > 100 µM

## CC1OC(n2cc(F)c(=O)[nH]c2=O)CCC1=O (stereo unspecified)
SW-620 colon
  TGI: > 100 µM
A549 NSCLC
  TGI: > 100 µM
ACHN renal
  TGI: > 100 µM
SNB-75 CNS
  TGI: > 100 µM
NCI-H460 lung
  TGI: > 100 µM
K-562 leukemia
  TGI: > 100 µM
A498 renal
  TGI: > 100 µM
UO-31 renal
  TGI: > 100 µM
UACC-257 melanoma
  TGI: > 100 µM
NCI-H522 lung
  TGI: > 100 µM
SK-OV-3 ovarian
  TGI: > 100 µM
SR leukemia
  TGI: > 100 µM
786-0 renal
  TGI: > 100 µM
SK-MEL-5 melanoma
  TGI: > 100 µM

## Cn1cc(NC(=O)Nc2cc(C(=O)Nc3cc(C(=O)Nc4ccc5cc(S(=O)(=O)O)cc(S(=O)(=O)O)c5c4)n(C)c3)n(C)c2)cc1C(=O)Nc1cc(C(=O)Nc2ccc3cc(S(=O)(=O)O)cc(S(=O)(=O)O)c3c2)n(C)c1
SW-620 colon
  TGI: > 100 µM
A549 NSCLC
  TGI: > 100 µM
ACHN renal
  TGI: > 100 µM
SNB-75 CNS
  TGI: > 100 µM
NCI-H460 lung
  TGI: > 100 µM
K-562 leukemia
  TGI: > 100 µM
SK-MEL-28 melanoma
  TGI: > 100 µM
UO-31 renal
  TGI: > 100 µM
EKVX NSCLC
  TGI: > 100 µM
UACC-257 melanoma
  TGI: > 100 µM
NCI-H522 lung
  TGI: > 100 µM
SK-OV-3 ovarian
  TGI: > 100 µM
SR leukemia
  TGI: > 100 µM
786-0 renal
  TGI: > 100 µM
SK-MEL-5 melanoma
  TGI: > 100 µM

## O=C(NC(CS)C(=O)O)c1c2ccccc2nc2ccccc12 (stereo unspecified)
SW-620 colon
  TGI: > 100 µM
A549 NSCLC
  TGI: > 100 µM
ACHN renal
  TGI: > 100 µM
SNB-75 CNS
  TGI: > 100 µM
NCI-H460 lung
  TGI: > 100 µM
K-562 leukemia
  TGI: > 100 µM
A498 renal
  TGI: > 100 µM
SK-MEL-28 melanoma
  TGI: > 100 µM
UO-31 renal
  TGI: 43 µM
EKVX NSCLC
  TGI: > 100 µM
UACC-257 melanoma
  TGI: > 100 µM
NCI-H522 lung
  TGI: > 100 µM
SK-OV-3 ovarian
  TGI: > 100 µM
SR leukemia
  TGI: > 100 µM
786-0 renal
  TGI: > 100 µM
SK-MEL-5 melanoma
  TGI: 12.8 µM

## CCCC(=O)OCC1OC(n2cc(F)c(=O)[nH]c2=O)C(F)C1O (stereo unspecified)
SW-620 colon
  TGI: > 100 µM
A549 NSCLC
  TGI: > 100 µM
ACHN renal
  TGI: > 100 µM
SNB-75 CNS
  TGI: > 100 µM
NCI-H460 lung
  TGI: > 100 µM
K-562 leukemia
  TGI: > 100 µM
SK-MEL-28 melanoma
  TGI: > 100 µM
UO-31 renal
  TGI: > 100 µM
EKVX NSCLC
  TGI: > 100 µM
UACC-257 melanoma
  TGI: > 100 µM
NCI-H522 lung
  TGI: > 100 µM
SK-OV-3 ovarian
  TGI: > 100 µM
SR leukemia
  TGI: > 100 µM
786-0 renal
  TGI: > 100 µM
SK-MEL-5 melanoma
  TGI: > 100 µM

## C/C(=N\O)c1ccc(OCc2cc(C(F)(F)F)cc(C(F)(F)F)c2)cc1
SW-620 colon
  TGI: > 100 µM
A549 NSCLC
  TGI: > 100 µM
ACHN renal
  TGI: > 100 µM
SNB-75 CNS
  TGI: > 100 µM
NCI-H460 lung
  TGI: 69.1 µM
K-562 leukemia
  TGI: > 100 µM
A498 renal
  TGI: > 100 µM
SK-MEL-28 melanoma
  TGI: > 100 µM
UO-31 renal
  TGI: > 100 µM
EKVX NSCLC
  TGI: > 100 µM
UACC-257 melanoma
  TGI: > 100 µM
NCI-H522 lung
  TGI: > 100 µM
SK-OV-3 ovarian
  TGI: > 100 µM
SR leukemia
  TGI: > 100 µM
786-0 renal
  TGI: > 100 µM
SK-MEL-5 melanoma
  TGI: > 100 µM

## O=C(C[C@@H]1CCCN2CCCC[C@H]12)N1c2ccccc2Sc2ccc(Cl)cc21
SW-620 colon
  TGI: 26.8 µM
A549 NSCLC
  TGI: 30.9 µM
ACHN renal
  TGI: 27.2 µM
SNB-75 CNS
  TGI: 33.4 µM
NCI-H460 lung
  TGI: 28.3 µM
K-562 leukemia
  TGI: 35.2 µM
SK-MEL-28 melanoma
  TGI: 26.3 µM
UO-31 renal
  TGI: 25.9 µM
EKVX NSCLC
  TGI: 33.8 µM
UACC-257 melanoma
  TGI: 25.6 µM
NCI-H522 lung
  TGI: 26.9 µM
SR leukemia
  TGI: 53 µM
786-0 renal
  TGI: 23.1 µM
SK-MEL-5 melanoma
  TGI: 23.9 µM

## N#Cc1ccc(C2ON=C(c3ccccc3)N2C23CC4CC(CC(C4)C2)C3)cc1 (stereo unspecified)
SW-620 colon
  TGI: > 10 µM
A549 NSCLC
  TGI: > 10 µM
ACHN renal
  TGI: > 10 µM
SNB-75 CNS
  TGI: > 10 µM
NCI-H460 lung
  TGI: > 10 µM
K-562 leukemia
  TGI: > 10 µM
A498 renal
  TGI: > 10 µM
SK-MEL-28 melanoma
  TGI: > 10 µM
EKVX NSCLC
  TGI: > 10 µM
UACC-257 melanoma
  TGI: > 10 µM
NCI-H522 lung
  TGI: > 10 µM
SK-OV-3 ovarian
  TGI: > 10 µM
SR leukemia
  TGI: > 10 µM
786-0 renal
  TGI: > 10 µM
SK-MEL-5 melanoma
  TGI: > 10 µM

## O=c1c2ccccc2n2c(-c3ccccc3O)nnc2n1-c1ccccc1
SW-620 colon
  TGI: > 100 µM
A549 NSCLC
  TGI: > 100 µM
ACHN renal
  TGI: > 100 µM
SNB-75 CNS
  TGI: > 100 µM
NCI-H460 lung
  TGI: > 100 µM
K-562 leukemia
  TGI: > 100 µM
A498 renal
  TGI: > 100 µM
SK-MEL-28 melanoma
  TGI: > 100 µM
UO-31 renal
  TGI: 5.72 µM
EKVX NSCLC
  TGI: > 100 µM
UACC-257 melanoma
  TGI: > 100 µM
NCI-H522 lung
  TGI: > 100 µM
SK-OV-3 ovarian
  TGI: > 100 µM
SR leukemia
  TGI: > 100 µM
786-0 renal
  TGI: > 100 µM
SK-MEL-5 melanoma
  TGI: > 100 µM

## Cc1nc2ccc(Cl)cc2c2c1CCN2c1ccc(F)cc1
SW-620 colon
  TGI: > 100 µM
A549 NSCLC
  TGI: > 100 µM
ACHN renal
  TGI: > 100 µM
SNB-75 CNS
  TGI: 9.13 µM
NCI-H460 lung
  TGI: > 100 µM
K-562 leukemia
  TGI: > 100 µM
A498 renal
  TGI: 68.4 µM
SK-MEL-28 melanoma
  TGI: 75.7 µM
UO-31 renal
  TGI: > 100 µM
EKVX NSCLC
  TGI: > 100 µM
UACC-257 melanoma
  TGI: 49.6 µM
NCI-H522 lung
  TGI: > 100 µM
SK-OV-3 ovarian
  TGI: > 100 µM
SR leukemia
  TGI: 73.8 µM
786-0 renal
  TGI: > 100 µM
SK-MEL-5 melanoma
  TGI: 21.6 µM

## COc1ccc(OC2(c3cc(OC)ccc3OC)OC(=O)c3ccccc32)cc1 (stereo unspecified)
SW-620 colon
  TGI: > 100 µM
A549 NSCLC
  TGI: > 100 µM
ACHN renal
  TGI: > 100 µM
SNB-75 CNS
  TGI: > 100 µM
NCI-H460 lung
  TGI: > 100 µM
K-562 leukemia
  TGI: > 100 µM
A498 renal
  TGI: > 100 µM
SK-MEL-28 melanoma
  TGI: > 100 µM
UO-31 renal
  TGI: > 100 µM
EKVX NSCLC
  TGI: > 100 µM
UACC-257 melanoma
  TGI: > 100 µM
NCI-H522 lung
  TGI: > 100 µM
SK-OV-3 ovarian
  TGI: > 100 µM
SR leukemia
  TGI: > 100 µM
786-0 renal
  TGI: > 100 µM
SK-MEL-5 melanoma
  TGI: > 100 µM

## CC(C)CC(=O)CC(C)[C@]1(CCCOCc2ccccc2)C(=O)N2CCC3(C[C@@]24CCC[C@H]41)OCCO3 (stereo partly specified)
SW-620 colon
  TGI: > 10 µM
NCI-H460 lung
  TGI: > 10 µM
K-562 leukemia
  TGI: > 10 µM
A498 renal
  TGI: > 10 µM
UO-31 renal
  TGI: > 10 µM
EKVX NSCLC
  TGI: > 10 µM
NCI-H522 lung
  TGI: > 10 µM
SK-OV-3 ovarian
  TGI: > 10 µM
SR leukemia
  TGI: > 10 µM
786-0 renal
  TGI: > 10 µM
SK-MEL-5 melanoma
  TGI: > 10 µM

## Oc1ccc(Br)cc1C=Nc1c(NC2CCCCC2)oc2ccc(Br)cc12
SW-620 colon
  TGI: > 100 µM
A549 NSCLC
  TGI: > 100 µM
ACHN renal
  TGI: > 100 µM
SNB-75 CNS
  TGI: 79.5 µM
NCI-H460 lung
  TGI: > 100 µM
K-562 leukemia
  TGI: 29.2 µM
A498 renal
  TGI: > 100 µM
SK-MEL-28 melanoma
  TGI: > 100 µM
UO-31 renal
  TGI: > 100 µM
EKVX NSCLC
  TGI: > 100 µM
UACC-257 melanoma
  TGI: > 100 µM
SK-OV-3 ovarian
  TGI: > 100 µM
SR leukemia
  TGI: > 100 µM
786-0 renal
  TGI: > 100 µM
SK-MEL-5 melanoma
  TGI: > 100 µM
